Measurements as given in patent publication US7973034B2, “Amide, aryl sulfonamide, aryl urea, and α,β-diketone derived carboxylesterase inhibitors, and their methods of use” (priority 2003, dated 2011).
Read-outs that look alike come from different tables or passages of the source.

Assays:
[1] = molecular target: T1, human acetylcholinesterase (hAcChE) (Homo sapiens, UniProt P22303); test: biochemical; type: biochemical
T1 construct: purchased Sigma Biochemicals (St. Louis, Mo.)
Procedure: Data was transferred to GraphPad Prism software, and Ki values were calculated as described in the Example above.

[2] = molecular target: T2, rabbit liver carboxylesterase (rCE) (Oryctolagus cuniculus, UniProt P12337); test: biochemical; type: biochemical
T2 sequence (P12337 19-565): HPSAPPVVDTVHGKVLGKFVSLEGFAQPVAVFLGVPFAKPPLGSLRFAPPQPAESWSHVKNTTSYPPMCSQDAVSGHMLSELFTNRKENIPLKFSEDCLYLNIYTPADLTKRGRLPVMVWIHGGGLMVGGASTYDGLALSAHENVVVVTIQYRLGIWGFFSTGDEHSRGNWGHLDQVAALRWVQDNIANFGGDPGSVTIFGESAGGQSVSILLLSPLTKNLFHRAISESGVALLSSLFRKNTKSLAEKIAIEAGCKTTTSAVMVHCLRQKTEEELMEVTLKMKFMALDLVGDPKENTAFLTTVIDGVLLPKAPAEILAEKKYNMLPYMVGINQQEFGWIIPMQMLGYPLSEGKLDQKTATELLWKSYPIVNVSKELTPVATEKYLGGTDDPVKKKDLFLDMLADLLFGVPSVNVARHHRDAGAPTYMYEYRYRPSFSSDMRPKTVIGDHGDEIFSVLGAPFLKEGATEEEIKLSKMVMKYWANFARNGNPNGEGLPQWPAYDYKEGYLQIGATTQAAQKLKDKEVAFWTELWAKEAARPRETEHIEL

[3] = molecular target: T3, human liver carboxylesterase (hCE1) (Homo sapiens, UniProt P23141); test: biochemical; type: biochemical
T3 sequence (P23141 18-567): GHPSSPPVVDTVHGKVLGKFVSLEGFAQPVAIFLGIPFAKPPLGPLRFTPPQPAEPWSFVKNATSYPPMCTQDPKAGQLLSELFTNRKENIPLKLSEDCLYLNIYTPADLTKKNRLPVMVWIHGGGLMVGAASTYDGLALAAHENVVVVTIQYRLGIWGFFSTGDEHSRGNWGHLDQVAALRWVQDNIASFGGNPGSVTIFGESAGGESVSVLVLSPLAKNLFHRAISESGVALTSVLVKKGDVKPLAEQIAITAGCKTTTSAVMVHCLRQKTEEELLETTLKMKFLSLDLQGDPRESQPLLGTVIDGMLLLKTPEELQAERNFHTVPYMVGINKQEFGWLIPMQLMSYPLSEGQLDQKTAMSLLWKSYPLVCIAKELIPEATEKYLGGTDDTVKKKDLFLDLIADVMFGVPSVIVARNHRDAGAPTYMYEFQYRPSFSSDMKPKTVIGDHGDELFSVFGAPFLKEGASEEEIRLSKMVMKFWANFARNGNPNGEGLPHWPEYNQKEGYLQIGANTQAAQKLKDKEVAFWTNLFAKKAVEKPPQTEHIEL

[4] = molecular target: human butyrylcholinesterase (hBuChE) (Homo sapiens, UniProt P06276); test: biochemical
human butyrylcholinesterase (hBuChE), sequence (P06276 29-602): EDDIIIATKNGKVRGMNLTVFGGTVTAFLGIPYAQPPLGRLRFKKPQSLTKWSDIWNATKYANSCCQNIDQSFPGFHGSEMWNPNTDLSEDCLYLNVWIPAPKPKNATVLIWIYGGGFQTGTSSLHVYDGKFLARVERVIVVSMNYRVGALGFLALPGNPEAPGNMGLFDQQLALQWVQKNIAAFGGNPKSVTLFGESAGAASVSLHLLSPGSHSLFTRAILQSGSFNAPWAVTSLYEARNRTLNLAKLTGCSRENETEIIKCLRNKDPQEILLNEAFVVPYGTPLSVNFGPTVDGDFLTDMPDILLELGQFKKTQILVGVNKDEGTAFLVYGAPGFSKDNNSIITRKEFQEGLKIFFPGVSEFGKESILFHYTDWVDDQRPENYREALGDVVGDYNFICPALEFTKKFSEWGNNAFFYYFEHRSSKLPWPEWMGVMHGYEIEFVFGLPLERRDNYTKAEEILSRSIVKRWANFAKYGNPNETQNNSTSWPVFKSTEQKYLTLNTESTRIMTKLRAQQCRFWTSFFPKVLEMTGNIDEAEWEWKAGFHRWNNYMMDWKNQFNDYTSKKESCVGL

[5] = molecular target: T4, human small intestine carboxylesterase (hiCE) (Homo sapiens, UniProt O00748); test: biochemical; type: biochemical
T4 sequence (O00748 27-559): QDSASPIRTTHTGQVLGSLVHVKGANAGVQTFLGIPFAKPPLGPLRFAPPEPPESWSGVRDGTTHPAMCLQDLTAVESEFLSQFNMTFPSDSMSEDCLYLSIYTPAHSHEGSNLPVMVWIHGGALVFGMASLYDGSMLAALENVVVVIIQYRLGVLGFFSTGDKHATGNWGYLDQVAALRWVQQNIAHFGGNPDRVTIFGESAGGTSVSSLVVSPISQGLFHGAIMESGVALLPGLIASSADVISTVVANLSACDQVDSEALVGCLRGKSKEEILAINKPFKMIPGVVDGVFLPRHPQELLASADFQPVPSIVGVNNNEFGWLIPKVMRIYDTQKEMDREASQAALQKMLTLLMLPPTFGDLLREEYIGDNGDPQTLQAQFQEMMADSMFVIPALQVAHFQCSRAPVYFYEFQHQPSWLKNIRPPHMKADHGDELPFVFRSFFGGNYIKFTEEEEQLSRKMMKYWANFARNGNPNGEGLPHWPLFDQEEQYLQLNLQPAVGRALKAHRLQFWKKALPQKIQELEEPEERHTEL

[6] = molecular target: T5, human intestinal carboxylesterase in U373MGhiCE cells (Homo sapiens, UniProt O00748); test: Inhibition of intracellular carboxylesterase in U373MGhiCE cells; type: cell-based
T5 construct: expressed in transfected cells; host or cells: U373MG human glioma cells (U373MGhiCE)
T5 sequence (O00748 27-559): T4 sequence (O00748 27-559)
Procedure: To monitor the ability of the compounds to cross the cell membrane and inhibit carboxylesterase activity intracellularly, an assay using human tumor cells expressing hiCE was devised. U373MGhiCE (a human glioma cell line transfected with a plasmid expressing hiCE) were plated in T25 flasks and allowed to grow to confluency (approximately 2-5×10^5 cells). Inhibitors were then added at a final concentration of […], and incubation allowed to continue for 1 hour. At this time, the cells were washed extensively with 5 ml of complete media and 2×5 ml of Hanks balanced salt solution, and cell extracts were prepared. Carboxylesterase activity was then determined using o-NPA as a substrate.
Table 8 sets forth the level of intracellular enzyme inhibition following incubation of human glioblastoma tumor cells expressing human intestinal carboxylesterase with 10 μM of each compound identified in Table 3.

[7] = acetylthiocholine as substrate, Table 6, read-out: hAcChE Ki
[8] = o-NPA as substrate, Table 6, read-out: rCE Ki ± SE
[9] = o-NPA as substrate, Table 6, read-out: hCE1 Ki ± SE
[10] = butyrylthiocholine as substrate, Table 6, read-out: hBuChE Ki
[11] = o-NPA as substrate, Table 5, read-out: Ki hCE1
[12] = acetylthiocholine substrate, Table 5, read-out: Ki hAcChE
[13] = o-NPA as substrate, Table 5, read-out: Ki hiCE
[14] = o-NPA as substrate, Table 6, read-out: hiCE Ki ± SE

T1 sequence (P22303 32-614): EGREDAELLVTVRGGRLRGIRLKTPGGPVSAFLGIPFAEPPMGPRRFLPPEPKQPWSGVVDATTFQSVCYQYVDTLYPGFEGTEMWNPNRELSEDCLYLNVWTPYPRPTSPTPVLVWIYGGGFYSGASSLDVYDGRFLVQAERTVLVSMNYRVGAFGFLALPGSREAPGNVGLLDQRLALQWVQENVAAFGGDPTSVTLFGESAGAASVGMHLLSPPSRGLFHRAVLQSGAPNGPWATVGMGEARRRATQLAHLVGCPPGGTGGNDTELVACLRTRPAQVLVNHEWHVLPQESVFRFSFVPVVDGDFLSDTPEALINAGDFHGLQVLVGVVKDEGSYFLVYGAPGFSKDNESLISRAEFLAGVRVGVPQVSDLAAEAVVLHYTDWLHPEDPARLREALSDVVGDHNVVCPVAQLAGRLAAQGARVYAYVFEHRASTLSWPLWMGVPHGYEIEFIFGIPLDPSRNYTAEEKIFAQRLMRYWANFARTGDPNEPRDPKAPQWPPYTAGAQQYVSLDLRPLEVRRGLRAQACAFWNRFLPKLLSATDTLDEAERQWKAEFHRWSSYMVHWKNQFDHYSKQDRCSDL

SMILES	Ki [1, 7]	Ki [2, 8]	Ki [3, 9]	Ki [4]	Ki [1]	Ki [4, 10]	further results
O=C(C(=O)c1ccc(C(=O)C(=O)c2ccccc2)cc1)c1ccccc1 [Compound 38, 1-{4-[oxo(phenyl)acetyl]phenyl}-2-phenylethane-1,2-dione]	> 100 µM	0.0061 ± 0.0006 µM					
COc1ccc(C(=O)C(=O)c2ccc(OC)cc2)cc1 [Compound 21, 1,2-bis(4-methoxyphenyl)ethane-1,2-dione]	> 100 µM	0.58 ± 0.157 µM	3.41 µM	> 100 µM			
O=C(C(=O)c1ccccc1Cl)c1ccccc1Cl [Compound 30, 1,2-bis(2-chlorophenyl)ethane-1,2-dione]		0.22 ± 0.037 µM			> 100 µM	> 100 µM	Ki ([3]; read-out: hCE1 Ki ± SE): 1.65 µM
O=C(C(=O)c1ccc([N+](=O)[O-])cc1[N+](=O)[O-])c1ccccc1 [Compound 11, 1-(2,4-dinitrophenyl)-2-phenylethane-1,2-dione]		0.52 ± 0.031 µM	> 100 µM		> 100 µM	> 100 µM	
COc1cc(OC)c(NC(=O)c2cc3ccccc3cc2O)cc1Cl [Compound 42, N-(5-chloro-2,4-dimethoxyphenyl)-3-hydroxy-2-naphthamide]							Ki [3, 11]: > 100 µM; Ki [1, 12]: > 100 µM; Ki [5, 13]: 0.159 µM; inhibition at 10 µM [6]: 0%
O=C(C(=O)c1ccc(Br)cc1)c1ccc(Br)cc1 [Compound 15, 1,2-bis(4-bromophenyl)ethane-1,2-dione]	> 100 µM	0.0041 ± 0.0005 µM	> 100 µM	> 100 µM			
O=C(C(=O)c1cccc([N+](=O)[O-])c1)c1cccc([N+](=O)[O-])c1 [Compound 34, 1,2-bis(3-nitrophenyl)ethane-1,2-dione]			18.1 µM		> 100 µM	> 100 µM	Ki ([2]; read-out: rCE Ki ± SE): 0.267 ± 0.03 µM
Cc1ccc(C(=O)C(=O)c2ccccc2)cc1 [Compound 32, 1-(4-methylphenyl)-2-phenylethane-1,2-dione]	> 100 µM	0.119 ± 0.02 µM	0.125 ± 0.015 µM			> 100 µM	
O=C(C(=O)c1ccc(O)cc1)c1ccc(O)cc1 [Compound 35, 1,2-bis(4-hydroxyphenyl)ethane-1,2-dione]	> 100 µM	> 100 µM	> 100 µM	> 100 µM			Ki [5, 14]: 1.2 µM
O=C(C(=O)c1ccc(O)c([N+](=O)[O-])c1)c1ccc(O)c([N+](=O)[O-])c1 [Compound 36, 1,2-bis(4-hydroxy-3-nitrophenyl)ethane-1,2-dione]					> 100 µM	> 100 µM	Ki [5]: > 100 µM; Ki [2]: > 100 µM
O=C(C(=O)c1cc(Br)ccc1O)c1cc(Br)ccc1O [Compound 9, 1,2-bis(5-bromo-2-hydroxyphenyl)ethane-1,2-dione]		0.0535 ± 0.0094 µM			> 100 µM	> 100 µM	Ki [3]: > 100 µM
O=C1C=Cc2ccccc2C1=O [Compound 29, Naphthalene-1,2-dione]							inhibition of hCE1 [3]: inhibition; inhibition of hAcChE [1]: inhibited; inhibition of hiCE [5]: inhibition; inhibition of rCE [2]: inhibition
COc1cccc(C(=O)C(=O)c2cccc(OC)c2)c1 [Compound 33, 1,2-bis(3-methoxyphenyl)ethane-1,2-dione]		0.0721 ± 0.0091 µM	1.54 µM	> 100 µM			
CN(C)c1ccc(C(=O)C(=O)c2ccc(N(C)C)cc2)cc1 [Compound 13, 1,2-bis[4(dimethylamino)phenyl]ethane-1,2-dione]	> 100 µM	2.4 µM	> 100 µM			> 100 µM	Ki [5, 14]: > 100 µM
O=C(NC(Cc1ccccc1)C(=O)Oc1ccc2ccccc2c1)c1ccccc1 (centres unmarked) [Compound 57, 2-Benzoylamino-3-phenyl-propionic acid naphthalene-2-yl ester]							Ki [3, 11]: > 100 µM; Ki [1, 12]: > 100 µM; Ki [5, 13]: 0.061 µM; inhibition at 10 µM [6]: 24.2%
Cc1cc([N+](=O)[O-])ccc1NC(=O)Nc1cccc(F)c1 [Compound 55, N-(3-fluorophenyl)-N′-(2-methyl-4-nitrophenyl)urea]							Ki [3, 11]: > 100 µM; Ki [1, 12]: > 100 µM; Ki [5, 13]: 1.28 µM
O=C(C(=O)c1ccc(Cl)cc1)c1ccccc1 [Compound 31, 1-(4-chlorophenyl)-2-phenylethane-1,2-dione]	> 100 µM	0.0239 ± 0.0029 µM	0.0474 ± 0.0068 µM	> 100 µM			
COc1ccc(C(=O)C(=O)c2ccccc2Cl)cc1OC [Compound 8, 1-(2-chlorophenyl)-2-(3,4-dimethoxyphenyl)ethane-1,2-dione]		0.036 ± 0.012 µM	3.3 µM	> 100 µM			
O=C(C(=O)c1ccc(O)cc1O)c1ccc(O)cc1O [Compound 10, 1,2-bis(2,4-dihydroxyphenyl)ethane-1,2-dione]	> 100 µM	> 100 µM	> 100 µM	> 100 µM			Ki [5, 14]: 1.73 µM
O=C(C(=O)c1c(Cl)c(Cl)c(Cl)c(Cl)c1Cl)c1c(F)c(F)c(F)c(F)c1F [Compound 12, 1-(pentachlorophenyl)-2-(pentafluorophenyl)ethane-1,2-dione]		0.823 ± 0.215 µM			> 100 µM	> 100 µM	Ki ([3]; read-out: hCE1 Ki ± SE): 1.69 µM
COc1ccc(C(=O)C(=O)c2ccc(OC)c([N+](=O)[O-])c2)cc1[N+](=O)[O-] [Compound 37, 1,2-bis(4-methoxy-3-nitrophenyl)ethane-1,2-dione]					> 100 µM	> 100 µM	Ki [3]: > 100 µM; Ki [5]: > 100 µM
O=C(C(=O)c1ccc(Br)c([N+](=O)[O-])c1)c1ccc(Br)c([N+](=O)[O-])c1 [Compound 4, 1,2-bis(4-bromo-3-nitrophenyl)ethane-1,2-dione]		0.0087 ± 0.0013 µM	> 100 µM		> 100 µM	> 100 µM	Ki [5]: > 100 µM
Cc1cccc(C)c1NC(=O)Nc1ccc([N+](=O)[O-])cc1 [Compound 54, N-(2,6-dimethylphenyl)-N′-(4-nitrophenyl)urea]							Ki [3, 11]: > 100 µM; Ki [1, 12]: > 100 µM; Ki [5, 13]: 0.32 µM; inhibition at 10 µM [6]: 0%
O=C(C(=O)c1ccc(Cl)cc1)c1ccc(Cl)cc1 [Compound 18, 1,2-bis(4-chlorophenyl)ethane-1,2-dione]	> 100 µM	0.0141 ± 0.0025 µM	> 100 µM	> 100 µM			
